Results: patent US7112590B2, “Thrombin inhibitors” (LEK Pharmaceuticals d.d., priority 2000, dated 2006)

What was measured:
Assay type in all cases: biochemical
[1] = biological target: T1, human thrombin (Homo sapiens, UniProt P00734); experiment: Determination of thrombin Ki (chromogenic substrate S-2238); conditions: for Ki: human thrombin, substrate S-2238, pH 7.5, 25° C.; for Ki trypsin/ Ki thrombin: selectivity: ratio of Ki for trypsin to Ki for thrombin
T1 construct: Human thrombin (308 NIH; Sigma); purchased Sigma
Description: (§1) The enzyme inhibitory effect of the compounds can be identified by determination of inhibition constant Ki. It denotes the degree of dissociation of the enzyme-inhibitor complex. Low dissociation constant means high potency of inhibitor. Ki can be determined during reaction of the enzyme with a specific chromogenic substrate which under hydrolysis by the enzyme develops color. Reaction in time is recorded by spectrophotometry and Ki is calculated from kinetic parameters (Vmax, Km, reaction rate).
1. Determination of Thrombin Ki
The ability of a compound to act as an inhibitor of human thrombin catalytic activity was assessed by determination of Ki.
(§2) Buffer: HBSA, pH 7.5 (10 mM Hepes, 150 mM NaCl, 0.1% w/v bovine serum albumin)
Substrate (S-2238: H-D-Phe-Pip-Arg-pNA HCl, 25 mg; Chromogenix): dissolved in distilled water to 1 mM concentration.
Human thrombin (308 NIH; Sigma): dissolved in saline to give a stock solution of 20 NIH/mL.
Inhibitors: were dissolved in DMSO (10 mM stock solution) and diluted with distilled water to working solutions (the highest final concentration of DMSO was 3%).
A mixture of 50 μL of buffer, 50 μL of inhibitor in water (final concentrations from 10 to 100 μM) and 50 μL of thrombin (0.5 NIH U/mL f.c.) was incubated for 15 minutes at room temperature. The reaction was started with 50 μL of S-2238 (20 μM or 40 μM f.c.) and the absorbance of each sample at 405 nm (at 25° C.) was measured in triplicate every 10 seconds for a period of 15 minutes using a microtiter plate reader (Tecan Sunrise).
(§3) Thrombin activity was determined from the change in absorbance in the linear part of the velocity graph. Ki was calculated according to Cheng and Prussof (Biochem Pharmacol, 1973) where Ki is IC50/(1+S/Km). The Km for the substrate was determined under the test conditions with at least 6 substrate concentrations varying around Km and calculated with the non-linear regression programme Curve expert.
3. Selectivity to Thrombin
By the use of other serine protease like trypsin with the appropriate chromogenic substrate, selectivity of inhibitors with respect to thrombin was determined. Selectivity of an inhibitor is expressed as a ratio of Ki for trypsin to Ki for thrombin.

[2] = biological target: T2, trypsin (UniProt P00760); experiment: Determination of trypsin Ki (chromogenic substrate S-2222); conditions: substrate S-2222, pH 7.5, 25° C.
T2 construct: Trypsin (6000 E/mg prot; Sigma): dissolved in distilled water to give a stock solution of 300 E/mL
T2 sequence (P00760 1-246): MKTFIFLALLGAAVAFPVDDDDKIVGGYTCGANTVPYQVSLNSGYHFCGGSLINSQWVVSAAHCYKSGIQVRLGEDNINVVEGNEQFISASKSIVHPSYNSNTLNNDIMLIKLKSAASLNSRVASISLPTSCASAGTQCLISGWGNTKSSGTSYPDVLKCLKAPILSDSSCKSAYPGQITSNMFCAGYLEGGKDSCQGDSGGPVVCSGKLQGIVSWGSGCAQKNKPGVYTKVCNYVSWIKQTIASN
Description: as §1
2. Determination of Trypsin Ki
The ability of a compound to act as an inhibitor of trypsin catalytic activity was assessed by determination of Ki.
as §2
Substrate (S-2222: N-benzoyl-Ile-Glu-Gly-Arg-pNA HCl, 25 mg; Chromogenix): dissolved in distilled water to 2 mM concentration. (Km is 21 μM)
Trypsin (6000 E/mg prot.; Sigma): dissolved in distilled water to give a stock solution of 300 E/mL.
Inhibitors: were dissolved in DMSO (10 mM stock solution) and diluted with distilled water to working solution (the highest final concentration of DMSO was 10%).
50 μL of buffer, 50 μL of test compound in water (final concentrations from 50 to 300 μM) and 50 μL of trypsin (3 mE/mL f.c.) were incubated for 15 minutes at room temperature. The reaction was started with 50 μL of S-2222 (50 μM or 100 μM f.c.) and the absorbance of each sample at 405 nm (at 25° C.) was measured in triplicates every 10 seconds for a period of 15 minutes using a microtiter plate reader (Tecan Sunrise).
as §3, with “Trypsin” for “Thrombin”, “of” for “of the”, “is,” for “is”, “under” for “under the”, “program” for “programme”

[3] = tested on: normal pooled human plasma; experiment: Activated partial thromboplastin time (aPTT) coagulation assay; conditions: concentration of inhibitor that doubled the clotting time
Description: (§4) The Anticoagulant effect of thrombin inhibitors was measured by thrombin time (TT), activated partial thromboplastin time (aPTT), and prothrombin time (PT) assays. Inhibitors were added to normal pooled human plasma over a range of concentrations and clotting was recorded in an automated coagulometer (Fibrintimer, Dade/Behring). The concentration of inhibitor that doubled the clotting time was determined for each assay.
2. Activated Partial Thromboplastin Time (aPTT)
Incubation of plasma with the optimal quantity of phospholipids and a surface activator leads to activation of factors of the intrinsic coagulation pathway. The addition of calcium ions triggers the coagulation process. The time of fibrin clot formation wass measured. aPTT was used as a screening test for coagulation disorders of the intrinsic coagulation pathway. It is prolonged due to intrinsic coagulation factors deficit or due to the presence of inhibitors.
Pathromtin SL (Dade/Behring): silicon dioxide particles, vegetable phospholipids, sodium chloride (2.4 g/L), Hepes (14.3 g/L, pH 7.6), sodium azide (<1 g/L). The reagent was used at room temperature (15–25° C.).
Calcium chloride solution: 0.025 mol/L, warmed to 37° C.
(§5) Normal pooled plasma: venous blood from 11 apparently healthy volunteers was collected (1 part 0.11 mol/L sodium citrate solution with 9 parts of blood) and centrifuged immediately at 2000×g for 30 minutes at 4° C. Plasma was removed, pooled and stored in aliquots at −70° C. until use.
(§6) Inhibitors: were dissolved in DMSO (10 mM stock solution) and diluted with distilled water to working solutions (the highest concentration 100 μM).
Inhibitor (10 μL working solution, concentrations from 5 μM to 100 μM) and pooled plasma (90 μL) were incubated at 37° C. for 5 minutes. Pathromtin (100 μL) was added and the sample was incubated for another 2 minutes at 37° C. The addition of calcium chloride (100 μL) triggered the coagulation process and clot formation was detected with a coagulometer in duplicate.

[4] = tested on: normal pooled human plasma; experiment: Prothrombin time (PT) coagulation assay; conditions: concentration of inhibitor that doubled the clotting time
Description: as §4
An optimal amount of thromboplastin and calcium are added to plasma sample and the time of fibrin clot formation wass measured. PT is a rapid, sensitive screening test for coagulation disorders of the extrinsic pathway. It is well suited for the induction and monitoring of oral anticoagulant therapy, for diagnosing genetic or acquired deficiencies in coagulation factors and checking the synthesis performance of the liver in hepatic diseases. PT is prolonged due to extrinsic coagulation factors deficit or due to the presence of inhibitors.
Thromboplastin (Thromborel S, Dade/Behring): was dissolved in 4 mL of distilled water. Reagent was at 37° C. prior to use at least 30 minutes.
as §5, §6
Inhibitor (10 μL working solution, concentrations from 5 μM to 100 μM) and pooled plasma (90 μL) were incubated at 37° C. for 5 minutes and then Thromborel S (200 μL) was added. Clot formation was measured with a coagulometer in duplicate.

[5] = tested on: normal pooled human plasma; experiment: Thrombin time (TT) coagulation assay; conditions: concentration of inhibitor that doubled the clotting time, bovine thrombin reagent
Description: as §4
In a plasma sample thrombin converts fibrinogen into fibrin and the clot is formed. The time for clot formation was measured. Thrombin time is prolonged due to disorders in fibrin polymerisation or due to the presence of thrombin inhibitors.
Thrombin (Test Thrombin Reagent, 1.5 IU/mL, Dade/Behring): lyophilized bovine thrombin was dissolved in 5 mL of HEPES (25 mmol/L, pH 7.4). The reagent was warmed to 37° C. prior to the assay.
as §5, §6
Inhibitors (10 μL working solution, concentrations from 2.5 μM to 100 μM) and pooled plasma (90 μL) were incubated at 37° C. for 5 minutes and then thrombin (200 μL) was added. Clot formation was measured in a coagulometer in duplicate.

Nc1nc2c(s1)CC(NC(=O)[C@@H]1CCCN1C(=O)[C@@H](Cc1ccccc1)NS(=O)(=O)Cc1ccccc1)CC2 (stereo partly drawn) [drawing 96]
Ki [1]: 0.62 µM | Ki trypsin/ Ki thrombin [1]: >110 | Ki [2]: > 68.3 µM | aPTT [3]: 332 µM | PT [4]: 578 µM | TT [5]: 84 µM

O=C(NCC1CCc2n[nH]cc2C1)[C@@H]1CCCN1C(=O)[C@@H](CC1CCCCC1)NS(=O)(=O)Cc1ccccc1 (stereo partly drawn) [drawing 92]
Ki [1]: 0.14 µM | Ki trypsin/ Ki thrombin [1]: 1267 | Ki [2]: 177 µM | aPTT [3]: 42.3 µM | PT [4]: 78.3 µM | TT [5]: 11 µM

Nc1nc2c(s1)CC(CNC(=O)[C@@H]1CCCN1C(=O)[C@@H](CC1CCCCC1)NS(=O)(=O)Cc1ccccc1)CC2 (stereo partly drawn) [drawing 95]
Ki [1]: 0.37 µM | Ki trypsin/ Ki thrombin [1]: 107.8 | Ki [2]: 39.9 µM | aPTT [3]: 64 µM | PT [4]: 95.3 µM | TT [5]: 15.8 µM

Nc1nc2c(s1)CC(NC(=O)[C@@H]1CCCN1C(=O)[C@@H](CC1CCCCC1)NS(=O)(=O)Cc1ccccc1)CC2 (stereo partly drawn) [drawing 91]
Ki [1]: 0.12 µM | Ki trypsin/ Ki thrombin [1]: >569 | Ki [2]: > 68.3 µM | aPTT [3]: 59 µM | PT [4]: 114 µM | TT [5]: 15 µM

O=C(O)CN[C@H](CC1CCCCC1)C(=O)N1CCC[C@H]1C(=O)NCC1CCc2n[nH]cc2C1 (stereo partly drawn)
Ki [1]: 0.28 µM | Ki trypsin/ Ki thrombin [1]: 70.6 | Ki [2]: 19.9 µM | aPTT [3]: 28 µM | PT [4]: 55.3 µM | TT [5]: 4.9 µM
